The test system of assay [1] is GSK3. Particulars: reference 42; cited from earlier work.
Assay [2] has as its system CD8+ T cells from people without HIV. Put plainly: In vitro reprogramming of bulk CD8+ T cells, phenotype without further stimulation. In kind it is cell-based, human. Particulars: BIO and TWS119 in parallel, 3 μM, 12 hs. The method, then: FIG. 1. Induction of stem-like CD8^+ T cells with high survival capacity and polyfunctionality by in vitro reprogramming. A. CD8^+ T cells from people without HIV were incubated with medium, vehicle control, or a GSK3 inhibitor, for 12 hs and the phenotype was evaluated by flow cytometry. A representative donor from a total of 4 is shown. B. Frequencies of CD8^+ T cell subpopulations after each treatment. C. Fold change of CD8^+ T cell subpopulations after treatment with vehicle control or a GSK3 inhibitor, relative to medium alone condition (n=4). D. Expression of TCF-1 in CD8^+ T cell subpopulations (n=4). E. The expression of the indicated markers in cells pre-treated with vehicle control or a GSK3 inhibitor was evaluated by flow cytometry. The fold change in the expression induced by 48 hs anti-CD3/CD28 stimulation, relative to unstimulated cells, is shown (n=5). F. Left: Flow cytometry analysis of dead cells (Aqua Live/Dead^+) among total and T-bet+CD8^+ T cells. Right: Fold change in dead CD8^+ T cells induced by anti-CD3/CD28 stimulation, relative to the unstimulated condition (n=5). G. Frequencies of granzyme B^+, TL-2^+, IFN-γ^+, and TNF-α^+CD8^+ T cells after anti-CD3/CD28 stimulation. H. Expression of 1 to 4 functions in CD8^+ T cells after anti-CD3/CD28 stimulation (n=5). I. After reprogramming with the GSK3 inhibitor, CD8^+ T cells were stimulated for 48 hs with anti-CD3/CD28, followed by wash and resting for 5 days. Then, cells were restimulated for another 48 hs with anti-CD3/CD28. Left: Flow cytometry analysis of proliferating (CFSE dilution) CD8^+ T cells. Right: Frequencies of CD8^+ T cells with 0, 1-3 or ≥4 cell divisions (n=9). J. Frequency of the total HCMV pp65-specific CD8^+ T cell response (IFN-γ^+ or CD107a^+ or TNF-α^+), after vehicle control or GSK3 inhibitor treatment, followed by HCMV pp65 peptides stimulation for 6 hs (n=6). K. Frequencies of CD8^+ T cell subpopulations among HCMV pp65-specific CD8^+ T cells (n=6). L. Expression of IFN-γ, CD107a, and TNF-α in HCMV pp65-specific CD8^+ T cells (n=6). M. Frequency of the total HCMV pp65-specific CD8^+ T cell response after HCMV pp65 peptides stimulation for 6 days (n=6). *P<0.05; **P≤0.01. NS: Not statistically significant. TSCM: Stem cell memory; TCM: Central memory; TTM: Transitional memory; TEM: Effector memory; TTE: Terminal effector.
FIG. 2. A. Flow cytometry gating strategy used to identify CD8^+ T cell subpopulations: Naïve, Stem cell memory (TSCM), Central memory (TCM), Transitional memory (TTM), Effector memory (TEM), and Terminal effector (TTE). B. Expression of CCR7, CD27 and TCF-1 in total CD8^+ T cells after treatment with vehicle control, or the GSK3 inhibitors BIO or TWS119, for 12 hs. The median fluorescence intensity of each marker is depicted. C. Fold change in TSCM, TCM and TEM cells induced by BIO or TWS119, relative to vehicle control (n=3 people without HIV). D. Fold change in T-bet^+ cells among TSCM and TCM induced by anti-CD3/CD28 stimulation, relative to vehicle control, in cells previously treated with vehicle control, BIO or TWS119 (n=3). E. Fold change in T-bet^+ cells among naïve/TSCM induced by anti-CD3/CD28 stimulation (0.2 and 1 μg/mL), relative to unstimulated cells, previous treatment with vehicle control or the GSK3 inhibitor (n=3). F. Fold change in T-bet^+ cells among each CD8^+ T cell subpopulation induced by anti-CD3/CD28+ICAM-1 stimulation, relative to unstimulated cells (n=5). G. Frequency of IL-2^+TNF-α^+ cells among each CD8^+ T cell subpopulation after anti-CD3/CD28+ICAM-1 stimulation (n=5). H. Correlation between the frequency of PD-1^+LAG-3^+TIM3^+TIGIT^+CD8^+ T cells and the proportion of CD8^+ T cells with ≥4 cell divisions after restimulation (n=6). I. After reprogramming with the GSK3 inhibitor, CD8^+ T cells were left unstimulated, stimulated once for 48 hs with anti-CD3/CD28, or stimulated twice with anti-CD3/CD28. The expression of T-bet in TCM and TTM cells is shown (n=5). *P<0.05. […]

Assay [3] has as its system GSK3. Particulars: cited from earlier work.

Molecules are shown by their SMILES.

The term IC50 denotes the concentration needed to halve the response being measured. For `Nc1cccc(-c2cc3c(Oc4cccc(O)c4)ncnc3[nH]2)c1` [TWS119, 3-[[6-(3-aminophenyl)-7H-pyrrolo[2,3-d]pyrimidin-4-yl]oxy]phenol], the Wnt/β-catenin/TCF-1 pathway entry in the assay with GSK3 [1] is given as “induce the activation”. Further, in assay [2] (FIG. 2B), the “CCR7, CD27, and TCF-1” value is listed as “induced”. In assay [2] (FIG. 2C), the TEM cells entry is “decrease”; the “TSCM and TCM cells” value is recorded as “increase”. Also, in the assay with GSK3 [3] (GSK3 inhibitor, review Front. Mol. Neurosci. 2011), the IC50 is 0.6 to 7 nM. Further, in the assay with GSK3 [3], the “selectivity of inhibition of GSK3” value is “highly selective inhibitors”.

Source of the values: patent US20250108070A1, “METHOD FOR REPROGRAMMING CD8+ T CELLS TO ENHANCE THEIR THERAPEUTIC POTENTIAL AND APPLICATIONS THEREOF” (INSTITUT PASTEUR, priority 2022, published 2025).
